We go through 21 molecules from patent US9096624B2 (OSI Pharmaceuticals, LLC, priority 2009, dated 2015).

“And” between values parts separate entries of the source, which are not always exact repeats. Identical values can stand only once.

For test [1], the target named is T1, FAK (Homo sapiens, UniProt Q05397). The test is described as follows: biochemical.
In test [2] the target is T1, FAK. Kind of test: Cell-based capture ELISA for inhibition of FAK autophosphorylation [pY397] in U87MG cells. In general terms: ELISA stands for enzyme-linked immunosorbent assay.
Test [3] concerns the target T1, FAK. The test is described as follows: Cell-based capture ELISA for inhibition of FAK autophosphorylation [pY397] in MiaPaCa2 cells. The note with it: MIA-PaCa2 cells, + 50% mouse plasma (Table 3); read-out: Mean FAK Cell Mechanistic IC50 + 50% mP MIA-PaCa2. The protocol:
Cell-Based Assays for Inhibition of FAK Autophosphorylation: MiaPaCa2 and U87MG
ELISA kit from Invitrogen (KHO0441).
Reagents Provided in Biosource FAK [pY397]
The cells were then suspended in cell assay medium.

[4] abbreviates: Mean FAK Cell Mechanistic IC50 + 50% mP U87MG, + 50% mouse plasma.
Where [5] appears, read: U87MG FAK Cell Mech IC50 +hP, + human plasma.
Setting [6] is: U87MG FAK Cell Mech IC50 +mP, + mouse plasma.

T1 sequence (Q05397 whole entry): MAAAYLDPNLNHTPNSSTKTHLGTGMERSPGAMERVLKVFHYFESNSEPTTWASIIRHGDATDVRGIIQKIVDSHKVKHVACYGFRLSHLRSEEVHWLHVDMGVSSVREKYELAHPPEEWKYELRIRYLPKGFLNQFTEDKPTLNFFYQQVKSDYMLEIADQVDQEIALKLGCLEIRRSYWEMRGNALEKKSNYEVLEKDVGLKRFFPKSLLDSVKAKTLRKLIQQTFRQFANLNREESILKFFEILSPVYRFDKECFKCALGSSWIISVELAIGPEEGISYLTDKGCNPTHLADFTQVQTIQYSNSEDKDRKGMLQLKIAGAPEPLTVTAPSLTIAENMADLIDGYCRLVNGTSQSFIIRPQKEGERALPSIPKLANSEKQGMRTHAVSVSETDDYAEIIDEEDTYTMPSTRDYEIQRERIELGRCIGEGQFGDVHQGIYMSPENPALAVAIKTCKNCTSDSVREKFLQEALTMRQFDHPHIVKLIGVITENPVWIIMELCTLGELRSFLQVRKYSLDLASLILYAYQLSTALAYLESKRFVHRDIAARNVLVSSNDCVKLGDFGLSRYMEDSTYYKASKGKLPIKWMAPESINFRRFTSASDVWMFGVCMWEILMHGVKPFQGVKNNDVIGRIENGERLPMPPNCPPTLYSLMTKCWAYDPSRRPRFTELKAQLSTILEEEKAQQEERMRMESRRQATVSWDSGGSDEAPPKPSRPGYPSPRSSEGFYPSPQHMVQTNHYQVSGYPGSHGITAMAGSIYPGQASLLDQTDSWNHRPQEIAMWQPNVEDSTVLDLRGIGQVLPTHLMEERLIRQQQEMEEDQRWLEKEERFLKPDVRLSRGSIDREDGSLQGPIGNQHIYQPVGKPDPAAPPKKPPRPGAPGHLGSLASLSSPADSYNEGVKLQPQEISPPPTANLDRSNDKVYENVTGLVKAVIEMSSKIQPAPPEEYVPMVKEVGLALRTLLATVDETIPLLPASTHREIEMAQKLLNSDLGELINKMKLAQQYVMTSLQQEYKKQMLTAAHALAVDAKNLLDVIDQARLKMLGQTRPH

As for `CCOP(=O)(Cc1ccc(Nc2ncc(C(F)(F)F)c(Nc3ccc(C4CCC(O)(C(=O)O)CC4)c4c3C(=O)N(C)C4)n2)c(OC)c1)OCC` (single isomer, unassigned) [Example 278, 4-(7-{2-[4-(Diethoxy-phosphorylmethyl)-2-methoxy-phenylamino]-5-trifluoromethyl-pyrimidin-4-ylamino}-2-methyl-1-oxo-2,3-dihydro-1H-isoindol-4-yl)-1-hydroxy-cyclohexanecarboxylic acid], the results for the concentration for half-maximal inhibition (IC50) in test [1] and in test [2] (setting [4]) were < 1 µM and 1 to 10 µM, respectively.
`COc1cc(P(C)(C)=O)ccc1Nc1ncc(Cl)c(Nc2ccccc2C(=O)NC(C)C)n1` [Cpd A, reference compound]: the IC50 (commonly the midpoint of a concentration-inhibition curve) was > 4 µM in test [2] (setting [5]); 3.69 µM and > 4 µM (3×) in test [2] (setting [6]).
For `COc1cc(P(C)(C)=O)ccc1Nc1ncc(Cl)c(Nc2cccc3c2C(=O)N(C)C3)n1` [Cpd B, reference compound], the IC50 in test [2] (setting [5]) was > 4 µM; in test [2] (setting [6]), 0.257 µM and 0.54 µM.
For the molecule `CCOP(=O)(Cc1ccc(Nc2ncc(C(F)(F)F)c(Nc3c(F)cccc3C(=O)NC)n2)c(OC)c1)OCC` [Example 154, Diethyl (4-{[4-{[2-fluoro-6-(methylcarbamoyl)phenyl]amino}-5-(trifluoromethyl)pyrimidin-2-yl]amino}-3-methoxybenzyl)phosphonate], the IC50 in test [1] and in test [2] (setting [4]) was < 1 µM each time.
Take `CCOP(=O)(Cc1ccc(Nc2ncc(C(F)(F)F)c(Nc3cccc(F)c3C(=O)NC)n2)c(OC)c1)OCC` [Example 155, diethyl (4-{[4-{[3-fluoro-2-(methylcarbamoyl)phenyl]amino}-5-(trifluoromethyl)pyrimidin-2-yl]amino}-3-methoxybenzyl)phosphonate]: the IC50 in test [1] and in test [2] (setting [4]) was < 1 µM throughout.
For `CCOP(=O)(Cc1ccc(Nc2ncc(C(F)(F)F)c(Nc3ccc([C@H]4CC[C@H](O)CC4)cc3C(=O)N(C)C)n2)c(OC)c1)OCC` [Example 195, diethyl (4-{[4-{[2-(dimethylcarbamoyl)-4-(trans-4-hydroxycyclohexyl)phenyl]amino}-5-(trifluoromethyl)pyrimidin-2-yl]amino}-3-methoxybenzyl)phosphonate], the IC50 in test [1] is < 1 µM; in test [2] (setting [4]) it was 1 to 10 µM.
On the same counts, the results for `CCOP(=O)(CC)Cc1ccc(Nc2ncc(C(F)(F)F)c(Nc3ccc([C@H]4CC[C@H](O)CC4)c4c3C(=O)N(C)C4)n2)cc1` (stereo partly drawn) [Example 202, Ethyl ethyl(4-{[4-{[7-(trans-4-hydroxycyclohexyl)-2-methyl-3-oxo-2,3-dihydro-1H-isoindol-4-yl]amino}-5-(trifluoromethyl)pyrimidin-2-yl]amino}benzyl)phosphinate] are < 1 µM and < 1 µM.
On to `CCOP(=O)(Cc1ccc(Nc2ncc(C(F)(F)F)c(Nc3ccc(C4CCN(C)CC4)c4c3C(=O)N(C)C4)n2)cc1)OCC` [Example 253, Diethyl (4-{[4-{[2-methyl-7-(1-methylpiperidin-4-yl)-3-oxo-2,3-dihydro-1H-isoindol-4-yl]amino}-5-(trifluoromethyl)pyrimidin-2-yl]amino}benzyl)phosphonate], for which the IC50 in test [3] and in test [1] was < 1 µM each time.
`CCOP(=O)(Cc1ccc(Nc2ncc(C(F)(F)F)c(Nc3ccc(N4CCC(C(=O)O)CC4)c4c3C(=O)N(C)C4)n2)c(OC)c1)OCC` [Example 256, 1-(7-{[2-({4-[(Diethoxyphosphoryl)methyl]-2-methoxyphenyl}amino)-5-(trifluoromethyl)pyrimidin-4-yl]amino}-2-methyl-1-oxo-2,3-dihydro-1H-isoindol-4-yl)piperidine-4-carboxylic acid]: the half-maximal inhibitory concentration (IC50) in test [1] and in test [2] (setting [4]) was < 1 µM throughout.
`CCOc1cc(CP(=O)(OCC)OCC)ccc1Nc1ncc(C(F)(F)F)c(Nc2ccc([C@H]3CC[C@@H](C(=O)O)CC3)c3c2C(=O)N(C)C3)n1` [Example 257, cis-4-(7-{[2-({4-[(Diethoxyphosphoryl)methyl]-2-ethoxyphenyl}amino)-5-(trifluoromethyl)pyrimidin-4-yl]amino}-2-methyl-1-oxo-2,3-dihydro-1H-isoindol-4-yl)cyclohexanecarboxylic acid]: the 50% inhibitory concentration (IC50) in test [3] and in test [1] was < 1 µM throughout.
`CCOc1cc(CP(=O)(OCC)OCC)ccc1Nc1ncc(C(F)(F)F)c(Nc2ccc([C@H]3CC[C@H](C(=O)O)CC3)c3c2C(=O)N(C)C3)n1` [Example 258, Trans-4-(7-{[2-({4-[(diethoxyphosphoryl)methyl]-2-ethoxyphenyl}amino)-5-(trifluoromethyl)pyrimidin-4-yl]amino}-2-methyl-1-oxo-2,3-dihydro-1H-isoindol-4-yl)cyclohexanecarboxylic acid]: the IC50 in test [3] and in test [1] was < 1 µM each time.
For the molecule `CCOP(=O)(Cc1ccc(Nc2ncc(C(F)(F)F)c(Nc3ccccc3C(=O)NOC)n2)c(OC)c1)OCC` [Example 259, Diethyl (3-methoxy-4-{[4-{[2-(methoxycarbamoyl)phenyl]amino}-5-(trifluoromethyl)pyrimidin-2-yl]amino}benzyl)phosphonate], the 50% inhibitory concentration (IC50) in test [1] and in test [2] (setting [4]) was < 1 µM throughout.
For the molecule `CCOP(=O)(Cc1ccc(Nc2ncc(C(F)(F)F)c(Nc3ccc(C4=CCNCC4)c4c3C(=O)N(C)C4)n2)c(OC)c1)OCC` [Example 262, Diethyl (3-methoxy-4-{[4-{[2-methyl-3-oxo-7-(1,2,3,6-tetrahydropyridin-4-yl)-2,3-dihydro-1H-isoindol-4-yl]amino}-5-(trifluoromethyl)pyrimidin-2-yl]amino}benzyl)phosphonate], the IC50 in test [1] and in test [2] (setting [4]) was < 1 µM throughout.
With `CCOP(=O)(Cc1ccc(Nc2ncc(C(F)(F)F)c(Nc3ccc(C4CCNCC4)c4c3C(=O)N(C)C4)n2)c(OC)c1)OCC` [Example 263, Diethyl (3-methoxy-4-{[4-{[2-methyl-3-oxo-7-(piperidin-4-yl)-2,3-dihydro-1H-isoindol-4-yl]amino}-5-(trifluoromethyl)pyrimidin-2-yl]amino}benzyl)phosphonate], the IC50 in test [1] and in test [2] (setting [4]) was < 1 µM in each case.
For the molecule `CCOP(=O)(Cc1ccc(Nc2ncc(C(F)(F)F)c(Nc3ccc(C4=CCN(C)CC4)c4c3C(=O)N(C)C4)n2)c(OC)c1)OCC` [Example 264, Diethyl (3-methoxy-4-{[4-{[2-methyl-7-(1-methyl-1,2,3,6-tetrahydropyridin-4-yl)-3-oxo-2,3-dihydro-1H-isoindol-4-yl]amino}-5-(trifluoromethyl)pyrimidin-2-yl]amino}benzyl)phosphonate], the concentration for half-maximal inhibition (IC50) in test [1] and in test [2] (setting [4]) was < 1 µM each time.
Regarding `CCOP(=O)(Cc1ccc(Nc2ncc(C(F)(F)F)c(Nc3ccc([C@H]4CC[C@@H](C(=O)O)CC4)c4c3C(=O)N(C)C4)n2)cn1)OCC` [Example 267, cis-4-(7-{[2-({6-[(Diethoxyphosphoryl)methyl]pyridin-3-yl}amino)-5-(trifluoromethyl)pyrimidin-4-yl]amino}-2-methyl-1-oxo-2,3-dihydro-1H-isoindol-4-yl)cyclohexanecarboxylic acid], the values for the 50% inhibitory concentration (IC50) in test [1] and in test [2] (setting [4]) were > 10 µM and 1 to 10 µM, respectively.
With `CCOP(=O)(Cc1ccc(Nc2ncc(C(F)(F)F)c(Nc3ccc([C@H]4CC[C@H](C(=O)O)CC4)c4c3C(=O)N(C)C4)n2)cn1)OCC` [Example 268, trans-4-(7-{[2-({6-[(diethoxyphosphoryl)methyl]pyridin-3-yl}amino)-5-(trifluoromethyl)pyrimidin-4-yl]amino}-2-methyl-1-oxo-2,3-dihydro-1H-isoindol-4-yl)cyclohexanecarboxylic acid], the IC50 in test [1] and in test [2] (setting [4]) was 1 to 10 µM throughout.
For `CCOP(=O)(Cc1ccc(Nc2ncc(C(F)(F)F)c(Nc3ccc(C4CCN(C)CC4)c4c3C(=O)N(C)C4)n2)c(OC)c1)OCC` [Example 269, Diethyl (3-methoxy-4-{[4-{[2-methyl-7-(1-methylpiperidin-4-yl)-3-oxo-2,3-dihydro-1H-isoindol-4-yl]amino}-5-(trifluoromethyl)pyrimidin-2-yl]amino}benzyl)phosphonate], the half-maximal inhibitory concentration (IC50) in test [1] and in test [2] (setting [4]) was < 1 µM throughout.
`CCOP(=O)(Cc1ccc(Nc2ncc(C(F)(F)F)c(Nc3ccc(-c4ccc(C(=O)O)cc4)c4c3C(=O)N(C)C4)n2)c(OC)c1)OCC` [Example 270, 4-(7-{[2-({4-[(diethoxyphosphoryl)methyl]-2-methoxyphenyl}amino)-5-(trifluoromethyl)pyrimidin-4-yl]amino}-2-methyl-1-oxo-2,3-dihydro-1H-isoindol-4-yl)benzoic acid]: the 50% inhibitory concentration (IC50) was < 1 µM in test [1] and 1 to 10 µM in test [2] (setting [4]).
Consider `CCOP(=O)(Cc1ccc(Nc2ncc(C(F)(F)F)c(Nc3ccc([C@H]4CC[C@@H](C(=O)NC)CC4)c4c3C(=O)N(C)C4)n2)c(OC)c1)OCC` [Example 271, Diethyl (3-methoxy-4-{[4-({2-methyl-7-[cis-4-(methylcarbamoyl)cyclohexyl]-3-oxo-2,3-dihydro-1H-isoindol-4-yl}amino)-5-(trifluoromethyl)pyrimidin-2-yl]amino}benzyl) phosphonate], for which the IC50 in test [1] and in test [2] (setting [4]) was < 1 µM throughout.
`CCOP(=O)(Cc1ccc(Nc2ncc(C(F)(F)F)c(Nc3ccccc3C(=O)O)n2)c(OC)c1)OCC` [Example 290, 2-{[2-({4-[(Diethoxyphosphoryl)methyl]-2-methoxyphenyl}amino)-5-(trifluoromethyl)pyrimidin-4-yl]amino}benzoic acid]: the 50% inhibitory concentration (IC50) in test [2] (setting [4]) lay in the range of 1 to 10 µM.
